Assays:
SW480 colon cancer cells = experiment: Wound healing (cell migration) assay, SW480; format: cell-based, human; conditions: SW480, 100 μM
Description: (§1) Wound healing assays to measure inhibition of cell migration toward scratched area with and without treatment of 100 μM ketoconazole dissolved in DMSO (final concentration, 1%). Percent of cells migrated toward a scratched field are shown. […] Percent of cells migrated toward a scratched field are shown.

[1] = system: Mia Paca-2 pancreatic cancer cells; experiment: Wound healing (cell migration) assay, Mia Paca-2; format: cell-based; conditions: Mia Paca-2, 100 μM
Description: (§2) Wound healing assays were also carried out to verify inhibition of cell migration after ketoconazole treatment.
as §1

[2] = system: MCF10CA1A breast cancer cells; experiment: QCM ECMatrix cell invasion assay, MCF10CA1A; format: cell-based; conditions: MCF-10CA1A, 100 μM for 72 hr
Description: Cell invasiveness of SW480 and HT29 human colon adenocarcinoma cells and MCF10CA1A breast cancer cells with and without 72 hr treatment with 100 μM ketoconazole was studied in 24-well plates using the QCM ECMatrix cell invasion assay kit (EMD Millipore).

[3] = system: unmodified c-myc in MCF-7 cells; experiment: Western blot of unmodified c-myc protein in treated MCF-7 cells; format: cell-based; conditions: MCF-7, 4 hr, 2 mM, Peptide #2-N antibody
Description: Western blot analysis was carried out with 10% gel electrophoresis using nuclear lysates obtained from MCF-7 cells with antibodies for O-GlcNAcylated c-myc (Peptide #2-G). […] There was no increase in unmodified c-myc protein after ketoconazole treatment as verified with antibodies for unmodified c-myc (Peptide #2-N) by Western blot analysis.

[4] = system: PANC1 pancreatic cancer cells; experiment: Wound healing (cell migration) assay, PANC1; format: cell-based; conditions: PANC1, 100 μM
Description: as §2, §1

MCF-7 and MCF10A cells = experiment: Lactate dehydrogenase (LDH) cytotoxicity assay, MCF-7 compared with MCF10A; format: cell-based; conditions: 2 mM, 4 hr
Description: Increased O-GlcNAcylated c-myc levels in MCF-7 cells induced cell death. MCF-7 tumor cell death after 2 mM ketoconazole treatment was compared with MCF10A normal cell death by LDH cytotoxicity assay. After treatment of cells for 4 hr, extracellular media and Triton X-100 solubilized cells were obtained and oxidation of NADH to NAD+ in both fractions was monitored for 2 min at a 340 nm to obtain total (media+cells) LDH release.

[5] = system: MCF-7 breast cancer cells; experiment: Cell proliferation, MCF-7; format: cell-based
Description: Cell proliferation assays were carried out after seeding 3,000-5,000 cells in a 96-well plate with and without treatment of 50 μM ketoconazole dissolved in DMSO (final concentration, 1%) for 72 hr (FIG. 8, Panel A). The cell number was counted after staining the cells with 3-(4,5-dimethylthiazol-2-yl)2,5-diphenyl-tetrazolium bromide (MTT).

HT29 colon cancer cells = experiment: Wound healing (cell migration) assay, HT29; format: cell-based, human; conditions: HT29, 100 μM
Description: as §1

[6] = system: O-GlcNAcylated c-myc in MCF-7 cells; experiment: Western blot of O-GlcNAcylated c-myc levels in treated MCF-7 cells; format: cell-based; conditions: MCF-7, 24 hr treatment, 2 mM, nuclear lysates
Description: MCF-7 cells were grown in MEM/EBSS media (Hyclone, Logan, Utah) supplemented with 10% fetal bovine serum and 0.01 mg/mL insulin. MCF-10A cells were grown in DMEM/F12 media (Hyclone) supplemented with 5% horse serum, […], […], 20 ng/mL EGF, […], 100 units/mL penicillin-streptomycin and 2 mM glutamine. The glucose concentration of MEM/EBSS and DMEM/F12 media are 6 mM and 18 mM, respectively. Cells were maintained in humidified atmosphere with 95% air and 5% CO2 at 37° C.
MCF-7 breast cancer cells were treated for 24 hr with 1% DMSO, with an O-GlcNAcase inhibitor, streptozotocin (STZ), with N^6-methyladenosine 5′-monophosphate [an O-GlcNAcase inhibitor discovered through by screening with the pseudofluorescent substrate 4-methylumbelliferol (4-MU)-GlcNAc (7)] or with media (control) (FIG. 5).
O-GlcNAcase inhibitors, which increased O-GlcNAcylation levels of proteins by preventing cleavage of an O-GlcNAc moiety of Ser or Thr residues, were identified using the antibodies of the present invention. […]
MCF-7 cells were treated for 4 hr with 1% DMSO (negative control) or 2 mM ketoconazole in DMSO and an O-GlcNAcylated c-myc band was detected using a second antibody for O-GlcNAcylated c-myc (Peptide #1-G).

[7] = system: O-GlcNAcylated p53 in MCF-7 cells; experiment: Western blot of O-GlcNAcylated p53 levels in treated MCF-7 cells; format: cell-based; conditions: MCF-7, 24 hr, 2 mM, cytosol-containing supernatants
Description: MCF-7 cells were grown in MEM/EBSS media (Hyclone, Logan, Utah) supplemented with 10% fetal bovine serum and 0.01 mg/mL insulin. […] The glucose concentration of MEM/EBSS and DMEM/F12 media are 6 mM and 18 mM, respectively. Cells were maintained in humidified atmosphere with 95% air and 5% CO2 at 37° C.
MCF-7 cells were grown for 24 hr with treatment of 1% DMSO (negative control) or 2 mM STZ or acetazolamide dissolved in DMSO or 2 mM N^6-methyladenosine 5′-monophosphate dissolved in media. The cells were harvested and cytosol-containing supernatants were obtained.

Row | SMILES | Percent of cells migrated (SW480 colon cancer cells; 0 hr) | inhibition of cell migration (SW480 colon cancer cells; 24 hours) | Percent of cells migrated (SW480 colon cancer cells; 24 hr) | % cells migrated ([1]; 0 hr) | % cells migrated ([1]; 24 hr) | % cells migrated ([1]; 24 hr, listed as Ketoconazole) | % cells migrated ([1]; 48 hr) | inhibition of migration in cell invasion assay [2] | unmodified c-myc protein level [3] | % cells migrated ([4]; 0 hr) | % cells migrated ([4]; 24 hr) | % cells migrated ([4]; 48 hr) | inhibition of cell migration ([4]; wound healing) | cell death in MCF-7 cells higher than in MCF10A cells (LDH release) (MCF-7 and MCF10A cells) | inhibition of cell proliferation [5] | Percent of cells migrated (HT29 colon cancer cells; 0 hr) | inhibition of cell migration (HT29 colon cancer cells; 24 hours) | Percent of cells migrated (HT29 colon cancer cells; 24 hr) | O-GlcNAcylated c-myc levels [6] | Levels of O-GlcNAcylated p53 [7]
1 | CC(=O)N1CCN(c2ccc(OCC3COC(Cn4ccnc4)(c4ccc(Cl)cc4Cl)O3)cc2)CC1 (centres unmarked) [ketoconazole] | 0 | slightly inhibited | 27 | 0% | 11.6% | 10% | 12% | partially inhibited | no increase | 0% | 6% | 11% | failed to inhibit | 84% | inhibited the proliferation | 0 | slightly inhibited | 8 |  | 
2 | CC(=O)Nc1nnc(S(N)(=O)=O)s1 [acetazolamide] |  |  |  |  |  |  |  |  |  |  |  |  |  |  |  |  |  |  | did not increase | potent inducer
